Measurements reported in US20240124412A1, “IKAROS ZINC FINGER FAMILY DEGRADERS AND USES THEREOF” (Gilead Sciences, Inc., priority 2021, published 2024).

Assays:
IKZF1 = molecular target: T1, IKZF1 (Homo sapiens, UniProt Q13422+Q96SW2); assay: HiBiT protein tagging assay, in vitro IKZF1 degradation (HEK293); assay type: cell-based; conditions: HEK293, 18-24 hr incubation, normalized to DMSO control; for Dmax: read-out: IKZF1 Dmax (maximum degradation at the highest concentration tested); for DC50: read-out: IKZF1 EC50
T1 construct: expressed in transfected cells
In short: (§1)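 Flp-In T-REx HEK293 pools stably expressing C-terminal HiBiT-tagged IKZF1 or IKZF2 were induced overnight with 1 μg/ml doxycycline. Cells were then treated with serially diluted compound for 18-24 hr at 37 °C and read by Nano-Glo lytic luminescence. Data were normalized to 0.5% DMSO as POC; EC50 and Dmax (maximum degradation at highest concentration tested) reported.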

IKZF2 = molecular target: T2, IKZF2 (Homo sapiens, UniProt Q96SW2+Q9UKS7); assay: HiBiT protein tagging assay, in vitro IKZF2 degradation (HEK293); assay type: cell-based; conditions: HEK293, 18-24 hr incubation, normalized to DMSO control; for Dmax: HEK293, HiBiT assay, read-out: IKZF2 Dmax (maximum degradation at the highest concentration tested); for DC50: read-out: IKZF2 EC50
T2 construct: expressed in transfected cells
In short: as §1

T2 sequence (Q9UKS7 1-500 isoform Q9UKS7-2): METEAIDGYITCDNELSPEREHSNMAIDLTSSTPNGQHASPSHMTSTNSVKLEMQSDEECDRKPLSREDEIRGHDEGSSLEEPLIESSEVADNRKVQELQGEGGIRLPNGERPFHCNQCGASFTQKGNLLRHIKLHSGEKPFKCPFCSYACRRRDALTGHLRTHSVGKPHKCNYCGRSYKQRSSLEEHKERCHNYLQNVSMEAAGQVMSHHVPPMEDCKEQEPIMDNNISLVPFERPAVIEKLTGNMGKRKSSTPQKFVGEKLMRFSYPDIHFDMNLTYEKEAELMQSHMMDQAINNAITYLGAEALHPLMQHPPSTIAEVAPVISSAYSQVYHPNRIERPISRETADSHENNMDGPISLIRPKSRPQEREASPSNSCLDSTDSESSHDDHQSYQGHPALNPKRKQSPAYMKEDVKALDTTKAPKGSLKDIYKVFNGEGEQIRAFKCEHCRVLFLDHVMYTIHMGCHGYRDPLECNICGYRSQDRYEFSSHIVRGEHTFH
T2 sequence (Q96SW2 whole entry): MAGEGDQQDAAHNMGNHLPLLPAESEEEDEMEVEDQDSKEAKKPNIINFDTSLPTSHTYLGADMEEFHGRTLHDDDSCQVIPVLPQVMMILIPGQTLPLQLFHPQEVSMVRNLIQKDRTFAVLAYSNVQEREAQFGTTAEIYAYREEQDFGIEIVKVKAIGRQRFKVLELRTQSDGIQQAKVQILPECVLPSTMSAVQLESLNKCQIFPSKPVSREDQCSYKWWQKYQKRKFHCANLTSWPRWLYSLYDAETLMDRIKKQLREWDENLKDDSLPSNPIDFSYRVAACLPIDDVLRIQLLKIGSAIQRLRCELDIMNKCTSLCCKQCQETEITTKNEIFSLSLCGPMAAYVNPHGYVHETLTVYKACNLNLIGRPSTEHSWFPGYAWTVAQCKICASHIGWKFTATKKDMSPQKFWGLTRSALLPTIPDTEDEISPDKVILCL
T2 sequence (Q16531 whole entry partner): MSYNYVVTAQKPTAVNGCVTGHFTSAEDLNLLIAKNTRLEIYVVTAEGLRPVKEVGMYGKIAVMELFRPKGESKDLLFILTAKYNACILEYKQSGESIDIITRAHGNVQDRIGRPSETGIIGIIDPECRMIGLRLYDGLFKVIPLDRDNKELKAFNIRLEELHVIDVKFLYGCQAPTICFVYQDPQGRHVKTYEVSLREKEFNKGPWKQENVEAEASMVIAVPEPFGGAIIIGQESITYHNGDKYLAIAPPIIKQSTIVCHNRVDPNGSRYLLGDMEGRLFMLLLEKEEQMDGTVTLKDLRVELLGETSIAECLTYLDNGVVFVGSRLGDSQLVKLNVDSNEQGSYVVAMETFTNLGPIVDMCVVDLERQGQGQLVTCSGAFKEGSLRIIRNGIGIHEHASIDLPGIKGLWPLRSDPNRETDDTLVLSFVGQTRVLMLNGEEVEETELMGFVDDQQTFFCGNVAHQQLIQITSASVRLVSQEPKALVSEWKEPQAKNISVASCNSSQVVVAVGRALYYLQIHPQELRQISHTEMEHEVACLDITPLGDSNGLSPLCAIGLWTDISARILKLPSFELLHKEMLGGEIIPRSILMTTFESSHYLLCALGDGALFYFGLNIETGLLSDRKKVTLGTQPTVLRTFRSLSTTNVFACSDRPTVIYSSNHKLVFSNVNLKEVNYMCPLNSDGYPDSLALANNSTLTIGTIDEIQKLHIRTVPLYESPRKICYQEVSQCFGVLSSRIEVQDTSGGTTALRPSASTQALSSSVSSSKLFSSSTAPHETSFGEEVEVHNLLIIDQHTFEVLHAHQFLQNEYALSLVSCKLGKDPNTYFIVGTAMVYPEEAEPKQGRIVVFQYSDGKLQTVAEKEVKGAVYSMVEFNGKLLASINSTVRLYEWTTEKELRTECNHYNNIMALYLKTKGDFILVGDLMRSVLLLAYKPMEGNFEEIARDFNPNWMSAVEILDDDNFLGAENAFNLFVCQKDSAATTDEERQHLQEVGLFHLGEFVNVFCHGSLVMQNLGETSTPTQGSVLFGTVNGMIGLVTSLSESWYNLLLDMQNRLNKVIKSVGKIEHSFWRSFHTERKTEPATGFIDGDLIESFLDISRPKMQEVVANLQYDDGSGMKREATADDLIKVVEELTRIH
T1 sequence (Q13422 whole entry): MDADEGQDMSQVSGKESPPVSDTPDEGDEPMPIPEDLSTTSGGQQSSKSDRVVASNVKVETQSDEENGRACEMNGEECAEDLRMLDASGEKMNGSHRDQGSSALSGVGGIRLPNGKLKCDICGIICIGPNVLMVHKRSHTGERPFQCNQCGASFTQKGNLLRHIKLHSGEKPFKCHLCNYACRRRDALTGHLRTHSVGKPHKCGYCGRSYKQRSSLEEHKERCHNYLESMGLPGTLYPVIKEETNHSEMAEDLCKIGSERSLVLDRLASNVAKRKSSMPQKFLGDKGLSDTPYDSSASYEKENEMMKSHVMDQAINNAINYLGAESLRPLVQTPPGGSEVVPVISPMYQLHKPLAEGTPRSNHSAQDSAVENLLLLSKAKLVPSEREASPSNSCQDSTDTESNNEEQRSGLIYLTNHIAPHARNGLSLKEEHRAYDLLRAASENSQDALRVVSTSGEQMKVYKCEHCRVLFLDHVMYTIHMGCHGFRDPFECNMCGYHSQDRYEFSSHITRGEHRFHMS
T1 sequence (Q96SW2 whole entry): as the sequence (Q96SW2 whole entry) above
T1 sequence (Q16531 whole entry partner): as the sequence (Q16531 whole entry partner) above

Dmax (IKZF1) [%] | DC50 (IKZF1) [nM] | Dmax (IKZF2) [%] | DC50 (IKZF2; HiBiT assay) [nM] | IKZF1 Dmax (maximum degradation at the highest concentration tested) (IKZF1) [%] | IKZF2 Dmax (maximum degradation at the highest concentration tested) (IKZF2; HiBiT assay) [%] | Compound
24 | 289 | 20 | 460 |  |  | C[C@@H](CO)NCc1ccc2c(c1)CN(C1CCC(=O)NC1=O)C2=O (some centres unmarked) [Example 53]
89 | 26 | 96 | 16 |  |  | CO[C@@H]1CCCC[C@@H]1NCc1ccc2c(c1)CN(C1CCC(=O)NC1=O)C2=O (some centres unmarked) [Example 108]
51 | 121 | 80 | 117 |  |  | O=C1CCC(N2Cc3cc(CNC4CCC(Cc5ccccc5)CC4)ccc3C2=O)C(=O)N1 (centres unmarked) [Example 10, 3-(5-(((4-benzylcyclohexyl)amino)methyl)-1-oxoisoindolin-2-yl)piperidine-2,6-dione]
 | > 10000 | 47 | 445 |  |  | O=C1CCC(N2Cc3cc(CNC4(C5CC5)CCCCC4)ccc3C2=O)C(=O)N1 (centres unmarked) [Example 150, 3-(5-(((1-cyclopropylcyclohexyl)amino)methyl)-1-oxoisoindolin-2-yl)piperidine-2,6-dione]
95 | 10 | 87 | 56 |  |  | O=C1CCC(N2Cc3cc(CN[C@@H]4CCCN(C(c5ccccc5)C(F)(F)F)C4)ccc3C2=O)C(=O)N1 (some centres unmarked) [Example 123]
45 | 762 | 67 | 1300 |  |  | O=C1CCC(N2Cc3cc(CN[C@H]4CCC[C@@H](O)C4)ccc3C2=O)C(=O)N1 (some centres unmarked) [Example 81]
86 | 93 | 43 | 381 |  |  | C[C@@H]1[C@H](NCc2ccc3c(c2)CN(C2CCC(=O)NC2=O)C3=O)CCCN1Cc1ccccc1 (stereo partly drawn) [Example 106, 3-(5-((((2R,3R)-1-benzyl-2-methylpiperidin-3-yl)amino)methyl)-1-oxoisoindolin-2-yl)piperidine-2,6-dione]
97 | 48 | 97 | 138 |  |  | O=C1CCC(N2Cc3cc(CN[C@@H]4CCCN(Cc5ccccn5)C4)ccc3C2=O)C(=O)N1 (stereo partly drawn) [Example 130, 3-(1-oxo-5-((((R)-1-(pyridin-2-ylmethyl)piperidin-3-yl)amino)methyl)isoindolin-2-yl)piperidine-2,6-dione]
88 | 30 | 92 | 95 |  |  | O=C1CCC(N2Cc3cc(CN[C@@H]4CCC[C@H](Nc5ccccc5)C4)ccc3C2=O)C(=O)N1 (some centres unmarked) [Example 90]
75 | 35 | 27 | 264 |  |  | O=C1CCC(N2Cc3cc(CNCc4ccccc4)ccc3C2=O)C(=O)N1 (centres unmarked) [Example 33, 3-(5-((benzylamino)methyl)-1-oxoisoindolin-2-yl)piperidine-2,6-dione]
42 | 84 | 69 | 106 |  |  | O=C1CCC(N2Cc3cc(CNC4CCC5(CCCCC5)CC4)ccc3C2=O)C(=O)N1 (centres unmarked) [Example 83]
92 | 95 | 94 | 231 |  |  | O=C1CCC(N2Cc3cc(CN[C@@H]4CCC[C@H]([C@@H](O)c5ccccc5)C4)ccc3C2=O)C(=O)N1 (some centres unmarked) [Example 135]
62 | 50 | 74 | 55 |  |  | O=C1CCC(N2Cc3cc(CNC4CCC5(CCC5)CC4)ccc3C2=O)C(=O)N1 (centres unmarked) [Example 59]
53 | 52 | 82 | 48 |  |  | O=C1CCC(N2Cc3cc(CNC4CC5CC(C5)C4)ccc3C2=O)C(=O)N1 (centres unmarked) [Example 74]
98 | 1 | 97 | 6 |  |  | O=C1CCC(N2Cc3cc(CN[C@@H]4CCCN(Cc5ccc(Cl)cc5)C4)ccc3C2=O)C(=O)N1 (stereo partly drawn) [Example 100, 3-(5-((((R)-1-(4-chlorobenzyl)piperidin-3-yl)amino)methyl)-1-oxoisoindolin-2-yl)piperidine-2,6-dione]
93 | 5 | 94 | 9 |  |  | O=C1CCC(N2Cc3cc(CN[C@@H]4CCC[C@H](COCc5ccccc5)C4)ccc3C2=O)C(=O)N1 (some centres unmarked) [Example 146]
68 | 70 | 68 | 154 |  |  | O=C1CCC(N2Cc3cc(CN[C@@H]4CCCC[C@@H]4Cc4ccccc4)ccc3C2=O)C(=O)N1 (some centres unmarked) [Example 68]
61 | 16 | 85 | 41 |  |  | O=C1CCC(N2Cc3cc(CN[C@@H]4CCC[C@H](Oc5ccccc5)C4)ccc3C2=O)C(=O)N1 (some centres unmarked) [Example 92]

Dmax (IKZF1) [%] | DC50 (IKZF1) [nM] | Dmax (IKZF2) [%] | DC50 (IKZF2; HiBiT assay) [nM] | IKZF1 Dmax (maximum degradation at the highest concentration tested) (IKZF1) [%] | IKZF2 Dmax (maximum degradation at the highest concentration tested) (IKZF2; HiBiT assay) [%] | Compound
94 | 5 | 93 | 29 |  |  | C[C@H](c1ccccc1)N1CCC[C@@H](NCc2ccc3c(c2)CN(C2CCC(=O)NC2=O)C3=O)C1 (stereo partly drawn) [Example 28, 3-(1-oxo-5-((((R)-1-((R)-1-phenylethyl)piperidin-3-yl)amino)methyl)isoindolin-2-yl)piperidine-2,6-dione]
30 | 85 | 65 | 193 |  |  | O=C1CCC(N2Cc3cc(CNC4CC5CCC4C5)ccc3C2=O)C(=O)N1 (stereo not drawn) [Example 42, 3-(5-((exo-bicyclo[2.2.1]heptan-2-ylamino)methyl)-1-oxoisoindolin-2-yl)piperidine-2,6-dione]
55 | 64 | 79 | 46 |  |  | O=C1CCC(N2Cc3cc(CNC4CCC5(CCCC5)CC4)ccc3C2=O)C(=O)N1 (centres unmarked) [Example 84]
44 | 117 | 81 | 114 |  |  | O=C1CCC(N2Cc3cc(CN[C@H]4CC[C@@H](C(F)(F)F)CC4)ccc3C2=O)C(=O)N1 (some centres unmarked) [Example 85]
66 | 3800 | 61 | 3800 |  |  | NC(=O)C1CCCC(NCc2ccc3c(c2)CN(C2CCC(=O)NC2=O)C3=O)C1 (stereo not drawn) [Example 96, (1,3-cis)-3-(((2-(2,6-dioxopiperidin-3-yl)-1-oxoisoindolin-5-yl)methyl)amino)cyclohexane-1-carboxamide]
 | 886 |  | 1700 | 27 | 27 | O=C1CCC(N2Cc3cc(CNC4CCN(Cc5ccccc5)C(=O)C4)ccc3C2=O)C(=O)N1 (centres unmarked) [Example 62]
80 | 19 | 83 | 58 |  |  | O=C1CCC(N2Cc3cc(CNC4CCN(c5ccccc5)CC4)ccc3C2=O)C(=O)N1 (centres unmarked) [Example 2, 3-(1-oxo-5-(((1-phenylpiperidin-4-yl)amino)methyl)isoindolin-2-yl)piperidine-2,6-dione]
57 | 213 | 85 | 170 |  |  | CO[C@@H]1CCCC[C@H]1NCc1ccc2c(c1)CN(C1CCC(=O)NC1=O)C2=O (some centres unmarked) [Example 127]
 | > 1000 | 65 | 172 |  |  | O=C1CCC(N2Cc3cc(CNC4(CCc5ccccc5)CCCCC4)ccc3C2=O)C(=O)N1 (centres unmarked) [Example 152, 3-(1-oxo-5-(((1-phenethylcyclohexyl)amino)methyl)isoindolin-2-yl)piperidine-2,6-dione]
51 | 184 | 90 | 144 |  |  | CO[C@H]1CC[C@H](NCc2ccc3c(c2)CN(C2CCC(=O)NC2=O)C3=O)CC1 (some centres unmarked) [Example 76]
30 | 169 | 69 | 218 |  |  | CCCC[C@H]1CC[C@H](NCc2ccc3c(c2)CN(C2CCC(=O)NC2=O)C3=O)CC1 (some centres unmarked) [Example 79]
66 | 131 | 43 | 443 |  |  | O=C1CCC(N2Cc3cc(CN[C@H]4CCC[C@@H]4NCc4ccccc4)ccc3C2=O)C(=O)N1 (stereo partly drawn) [Example 157, 3-(5-((((1S,2S)-2-(benzylamino)cyclopentyl)amino)methyl)-1-oxoisoindolin-2-yl)piperidine-2,6-dione]
96 | 115 | 96 | 318 |  |  | O=C1CCC(N2Cc3cc(CN[C@@H]4CCCN(Cc5cccnc5)C4)ccc3C2=O)C(=O)N1 (stereo partly drawn) [Example 124, 3-(1-oxo-5-((((R)-1-(pyridin-3-ylmethyl)piperidin-3-yl)amino)methyl)isoindolin-2-yl)piperidine-2,6-dione]
95 | 3 | 96 | 8 |  |  | O=C1CCC(N2Cc3cc(CN[C@@H]4CCC[C@H](Cc5ccccc5Cl)C4)ccc3C2=O)C(=O)N1 (some centres unmarked) [Example 137]
60 | 113 | 60 | 193 |  |  | O=C1CCC(N2Cc3cc(CN[C@@H]4CCC[C@H](C(=O)c5ccccc5)C4)ccc3C2=O)C(=O)N1 (some centres unmarked) [Example 129]
95 | 7 | 90 | 75 |  |  | O=C1CCC(N2Cc3cc(CN[C@@H]4CCC[C@H](OCc5ccccc5)C4)ccc3C2=O)C(=O)N1 (some centres unmarked) [Example 112]
 | > 10000 | 29 | 1800 |  |  | O=C1CCC(N2Cc3cc(CNC45CC(C4)C5)ccc3C2=O)C(=O)N1 (centres unmarked) [Example 15, 3-(5-((bicyclo[1.1.1]pentan-1-ylamino)methyl)-1-oxoisoindolin-2-yl)piperidine-2,6-dione]
